Source: patent publication US20260176260A1, “DUAL RAF AND TUBULIN INHIBITORS AND METHODS OF USE THEREOF” (Deciphera Pharmaceuticals, LLC, priority 2023, published 2026)
Like-named read-outs stand apart in the source and are kept apart here.

Legend:
B-Raf kinase = molecular target: T1, B-Raf kinase (Homo sapiens, UniProt P15056); assay: Biochemical assay for B-Raf (coupled pyruvate kinase/lactate dehydrogenase)
T1 construct: purchased Sigma

C-Raf kinase = molecular target: T2, C-Raf kinase (Homo sapiens, UniProt P04049, Y340D/Y341D); assay: Biochemical assay for C-Raf (coupled pyruvate kinase/lactate dehydrogenase)
T2 construct: C-Raf residues 306-end; Y340D, Y341D with N-; purchased Sigma
T2 sequence (P04049 307-648 Y340D/Y341D): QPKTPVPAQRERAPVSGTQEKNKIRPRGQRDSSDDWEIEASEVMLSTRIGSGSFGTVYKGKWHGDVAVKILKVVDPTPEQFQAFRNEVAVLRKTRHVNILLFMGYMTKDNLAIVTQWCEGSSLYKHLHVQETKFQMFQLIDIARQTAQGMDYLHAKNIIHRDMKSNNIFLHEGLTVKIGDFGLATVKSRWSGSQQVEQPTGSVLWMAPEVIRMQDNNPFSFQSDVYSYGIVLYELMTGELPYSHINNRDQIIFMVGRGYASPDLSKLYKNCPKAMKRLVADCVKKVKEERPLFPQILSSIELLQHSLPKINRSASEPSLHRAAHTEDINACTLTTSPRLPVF

MiaPaca-2 cells = assay: MiaPaca-2 cell proliferation assay (resazurin); format: cell-based; details: Homo sapiens, MIA PaCa-2; Table 2, inhibition of cell proliferation; read-out: MiaPaca-2
Protocol: MiaPaca-2 cells (catalog #CRL-1420) are obtained from the American Type Culture Collect (ATTC, Manassas, VA). Briefly, cells were grown in DMVEM supplemented with […] fetal bovine serum (Invitrogen, Carlsbad, CA), 2.5% New Zealand sourced horse serum and 1% Penicillin/Streptomycin/L-Glutamine at 37° C., […], and […]. Cells are expanded until reaching […] at which point they are sub-cultured or harvested for assay use. For assays completed in 96-well plates, a serial dilution of test compound is dispensed into a 96-well black clear bottom plate in triplicate. Three thousand cells are added per well in 200 μL complete growth medium in the 96-well plate. Plates are incubated for 67 to 72 h at 37° C., 5% CO2, and 95% humidity. At the end of the incubation, 40 μL of a […] solution of resazurin (Sigma, St. Louis, MO) in PBS is added to each well of the plate and plates are incubated for an additional 5 to 6 h at 37° C., 5% CO2, and 95% humidity. For 384-well assays, a threefold, 8-point serial dilution of compound was spotted column wise into a 384 well black, clear bottom, tissue culture treated plate using the Beckman Coulter Echo 650. Likewise, a threefold, 8-point serial dilution of cobimetinib was spotted row wise into the 384 well black, clear bottom plate containing compound. DMSO concentration was constant across all wells at 0.4%. Seven hundred fifty cells are added per well in 50 μL complete growth medium in each 384-well plate. Plates are incubated for 67 to 72 h at 37° C., 5% CO2, and 95% humidity. At the end of the incubation, 10 μL of a 440 μM solution of resazurin (Sigma, St. Louis, MO) in PBS is added to each well of the plate and plates are incubated for an additional 4 to 6 h at 37° C., 5% CO2, and 95% humidity. Plates are read on a Synergy2 or equivalent reader (Biotek, Winooski VT) using an excitation of 540 nm and an emission of 600 nm. Data is analyzed using Prism software (Graphpad, San Diego, CA) to calculate IC50 values.

HCT-116 cells = assay: HCT-116 cell proliferation assay (resazurin); format: cell-based; details: Homo sapiens
Protocol: HCT-116 cells (catalog #CCL-247) are obtained from the American Type Culture Collect (ATCC, Manassas, VA). Briefly, cells are grown in McCoy's 5A supplemented with 10% characterized fetal bovine serum (Invitrogen, Carlsbad, CA) and 1% Penicillin/Streptomycin/L-Glutamine at 37° C., 5% CO2, and 95% humidity. Cells are expanded until reaching 70-95% confluency at which point they are sub-cultured or harvested for assay use. A serial dilution of test compound is dispensed into a 384-well black clear bottom plate in triplicate. 375 cells are added per well in 50 μL complete growth medium in the 384-well plate. Plates are incubated for 67 to 72 h at 37° C., 5% CO2, and 95% humidity. At the end of the incubation, 40 μL of a […] solution of resazurin (Sigma, St. Louis, MO) in PBS is added to each well of the plate and plates are incubated for an additional 4 to 5 h at 37° C., 5% CO2, and 95% humidity. Plates are read on a Synergy2 or equivalent reader (Biotek, Winooski, VT) using an excitation of 540 nm and an emission of 600 nm. Data is analyzed using Prism software (Graphpad, San Diego, CA) to calculate IC50 values.

HPAF-II cells = assay: HPAF-II cell proliferation assay (resazurin); format: cell-based; details: Homo sapiens
Protocol: (§1) HPAF-II cells (catalog #CRL-1997) are obtained from the American Type Culture Collect (ATCC, Manassas, VA). Briefly, cells are grown in Minimum Essential Media supplemented with 10% characterized fetal bovine serum (Invitrogen, Carlsbad, CA) and 1% Penicillin/Streptomycin/L-Glutamine at 37° C., 5% CO2, and 95% humidity. Cells are expanded until reaching 70-95% confluency at which point they are sub-cultured or harvested for assay use. A serial dilution of test compound is dispensed into a 384-well black clear bottom plate in triplicate. 750 cells are added per well in 50 μL complete growth medium in the 384-well plate. Plates are incubated for 115 to 120 h at 37° C., 5% CO2, and 95% humidity. At the end of the incubation, 40 μL of a […] solution of resazurin (Sigma, St. Louis, MO) in PBS is added to each well of the plate and plates are incubated for an additional 18 to 24 h at 37° C., 5% CO2, and 95% humidity. Plates are read on a Synergy2 or equivalent reader (Biotek, Winooski, VT) using an excitation of 540 nm and an emission of 600 nm. Data is analyzed using Prism software (Graphpad, San Diego, CA) to calculate IC50 values.

Pa16c cells = assay: Pa16c cell proliferation assay (resazurin); format: cell-based; details: Table 2, inhibition of cell proliferation
Protocol: as §1, with “Pa16c” for “HPAF-II”, “cells” for “cells (catalog #CRL-1997)”, “Dr. Channing Der, University of North Carolina at Chapel Hill.” for “the American Type Culture Collect (ATCC, Manassas, VA).”, “Dulbecco's Modified Eagle Medium” for “Minimum Essential Media”, “67” for “115”, “72” for “120”

[1] = Table 1, inhibition of biochemical activity, read-out: BRAF
[2] = Table 1, inhibition of biochemical activity, read-out: CRAF
[3] = Table 2, inhibition of cell proliferation, read-out: HCT-116
[4] = Table 2, inhibition of cell proliferation, read-out: HPAF-II

T1 sequence (P15056 416-766): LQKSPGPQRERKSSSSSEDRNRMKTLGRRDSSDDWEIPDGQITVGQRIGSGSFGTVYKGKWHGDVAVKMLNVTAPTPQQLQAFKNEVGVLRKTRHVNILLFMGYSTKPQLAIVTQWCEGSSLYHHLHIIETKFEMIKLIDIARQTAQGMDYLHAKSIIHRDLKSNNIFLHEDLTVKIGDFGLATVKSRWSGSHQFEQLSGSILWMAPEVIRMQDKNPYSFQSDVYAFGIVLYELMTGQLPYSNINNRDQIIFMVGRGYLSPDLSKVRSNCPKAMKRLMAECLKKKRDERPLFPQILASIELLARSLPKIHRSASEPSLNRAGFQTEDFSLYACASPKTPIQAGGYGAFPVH

IC50 (B-Raf kinase; [1])	IC50 (C-Raf kinase; [2])	IC50 (MiaPaca-2 cells)	IC50 (HCT-116 cells; [3])	IC50 (B-Raf kinase; Table 4, read-out: BRAF IC50)	IC50 (C-Raf kinase; Table 4, read-out: CRAF IC50)	IC50 (HCT-116 cells; HCT-116, Table 4, read-out: HCT-116 IC50)	Structure (SMILES)	IC50 (HPAF-II cells; [4])	IC50 (Pa16c cells)	IC50 (HPAF-II cells; HPAF-II, Table 4, read-out: HPAF-II IC50)
500 to 1000 nM	100 to 500 nM	1000 to 10000 nM	1000 to 10000 nM				CNC(=O)c1cc(-c2cc(-c3cc(NC(=N)c4cc(C(F)(F)F)cnn4)ccc3C)ccn2)ccn1 [Example 20]	1000 to 10000 nM	1000 to 10000 nM	
< 100 nM	< 100 nM	100 to 500 nM	100 to 500 nM				CNC(=O)c1cc(-c2cc(-c3cc(NC(=O)c4cc(C(C)(F)F)cnn4)ccc3C)cc(N[C@H](C)CO)n2)ccn1 [Example 38]	100 to 500 nM	100 to 500 nM	
< 100 nM	< 100 nM	1000 to 10000 nM	500 to 1000 nM				CNC(=O)c1cc(-c2nc(NCCO)cc(-c3cc(NC(=O)c4cc(C(F)(F)F)cnn4)ccc3C)n2)ccn1 [Example 23]	1000 to 10000 nM	1000 to 10000 nM	
< 100 nM	< 100 nM	< 100 nM	< 100 nM				Cc1ccc(NC(=O)c2cc(C(F)(F)F)cnn2)cc1-c1ccnc(-c2ccnc(C(N)=O)c2)c1 [Example 3, 4-(2-methyl-5-(5-(trifluoromethyl)pyridazine-3-carboxamido)phenyl)-[2,4′-bipyridine]-2′-carboxamide]	100 to 500 nM	< 100 nM	
100 to 500 nM	100 to 500 nM	1000 to 10000 nM	1000 to 10000 nM				CNC(=O)c1cc(-c2cc(N[C@H](C)CO)nc(-c3cc(NC(=O)c4cc(C(F)(F)F)cnn4)ccc3C)n2)ccn1 [Example 39]	1000 to 10000 nM	1000 to 10000 nM	
				< 100 nM	< 100 nM	100 to 500 nM	CNC(=O)c1cc(-c2cc(-c3cc(NC(=O)c4cccc(C(C)(C)C#N)c4)ccc3C)cc(OCCO)n2)ccn1 [reference compound]			500 to 1000 nM
100 to 500 nM	100 to 500 nM	1000 to 10000 nM	1000 to 10000 nM				CNC(=O)c1cc(-c2cncc(-c3cc(NC(=O)c4cc(C(F)(F)F)cnn4)ccc3C)c2)ncn1 [Example 17]	1000 to 10000 nM	1000 to 10000 nM	
1000 to 10000 nM	1000 to 10000 nM	1000 to 10000 nM	1000 to 10000 nM				CCc1ccc(NC(=O)c2cc(C(F)(F)F)cnn2)cc1-c1ccnc(-c2ccnc(C(=O)NC)c2)c1 [Example 37]	1000 to 10000 nM	1000 to 10000 nM	
100 to 500 nM	100 to 500 nM	1000 to 10000 nM	1000 to 10000 nM				CNC(=O)c1cc(-c2cc(-c3cc(NC(=O)c4cnc(C(F)(F)F)nc4)ccc3C)cc(N[C@H](C)CO)n2)ccn1 [Example 45]	1000 to 10000 nM	1000 to 10000 nM	
< 100 nM	< 100 nM	< 100 nM	< 100 nM				CNC(=O)c1cc(-c2cc(-c3cc(NC(=O)c4cc(C(F)(F)F)cnn4)ccc3C)cc(NC)n2)ccn1 [Example 47]	< 100 nM	< 100 nM	
< 100 nM	< 100 nM	500 to 1000 nM	100 to 500 nM				CNC(=O)c1cc(-c2cc(-c3cc(NC(=O)c4cc(C5CC5)cnn4)ccc3C)cc(OCCO)n2)ccn1 [Example 34]	500 to 1000 nM	100 to 500 nM	
< 100 nM	< 100 nM	100 to 500 nM	100 to 500 nM				CNC(=O)c1cc(-c2cc(-c3cc(NC(=O)c4cc(C#N)cnn4)ccc3C)cc(NCCO)n2)ccn1 [Example 53]	100 to 500 nM		
1000 to 10000 nM	100 to 500 nM	500 to 1000 nM	100 to 500 nM				Cc1ccc(NC(=O)c2ccc(C(F)(F)F)nc2)cc1-c1ccnc(-c2ccnc(C(=O)NC3CC3)c2)c1 [Example 5]			
100 to 500 nM	100 to 500 nM	1000 to 10000 nM					CNC(=O)c1cc(-c2cncc(-c3cc(NC(=O)c4ccc(C(F)(F)F)nc4)ccc3C)c2)ncn1 [Example 10]			
500 to 1000 nM	100 to 500 nM	1000 to 10000 nM					Cc1ccc(NC(=O)c2ccc(C(F)(F)F)nc2)cc1-c1cncc(-c2ccnc(C(N)=O)c2)c1 [Example 11]			
< 100 nM	< 100 nM	1000 to 10000 nM	500 to 1000 nM				CNC(=O)c1cc(-c2cc(-c3cc(NC(=O)c4cncc(C(C)(F)F)c4)ccc3C)ccn2)ccn1 [Example 14]	1000 to 10000 nM		
< 100 nM	< 100 nM	100 to 500 nM	100 to 500 nM				CNC(=O)c1cc(-c2cc(-c3cc(NC(=O)c4cc(C#N)cnn4)ccc3C)cc(N[C@H](C)CO)n2)ccn1 [Example 50]	500 to 1000 nM		
100 to 500 nM	< 100 nM	500 to 1000 nM	500 to 1000 nM				CNC(=O)c1cc(-c2cc(N)cc(-c3cc(NC(=O)c4cc(C(F)(F)F)cnn4)ccc3C)c2)ccn1 [Example 51]	1000 to 10000 nM		
100 to 500 nM	< 100 nM	1000 to 10000 nM					CNC(=O)c1cc(-c2cc(-c3cc(NC(=O)c4cncc(C(C)(F)F)c4)ccc3C)cc(C)n2)ccn1 [Example 15]			
100 to 500 nM	< 100 nM	1000 to 10000 nM	1000 to 10000 nM				CNC(=O)c1cc(-c2cc(-c3cc(NC(=O)c4cc(C(N)=O)cnn4)ccc3C)cc(OCCO)n2)ccn1 [Example 52, N^3-(3-(6-(2-hydroxyethoxy)-2′-(methylcarbamoyl)-[2,4′-bipyridin]-4-yl)-4-methylphenyl)pyridazine-3,5-dicarboxamide]	1000 to 10000 nM		
